In ChEMBL document CHEMBL3991601, “The target landscape of clinical kinase drugs” (Science, 2017):
Calls of active or inactive are those of the source.

Columns and labels:
[1] = biological target: T1, Eukaryotic translation initiation factor 5B (Homo sapiens, UniProt O60841)
T1 sequence (O60841 whole entry): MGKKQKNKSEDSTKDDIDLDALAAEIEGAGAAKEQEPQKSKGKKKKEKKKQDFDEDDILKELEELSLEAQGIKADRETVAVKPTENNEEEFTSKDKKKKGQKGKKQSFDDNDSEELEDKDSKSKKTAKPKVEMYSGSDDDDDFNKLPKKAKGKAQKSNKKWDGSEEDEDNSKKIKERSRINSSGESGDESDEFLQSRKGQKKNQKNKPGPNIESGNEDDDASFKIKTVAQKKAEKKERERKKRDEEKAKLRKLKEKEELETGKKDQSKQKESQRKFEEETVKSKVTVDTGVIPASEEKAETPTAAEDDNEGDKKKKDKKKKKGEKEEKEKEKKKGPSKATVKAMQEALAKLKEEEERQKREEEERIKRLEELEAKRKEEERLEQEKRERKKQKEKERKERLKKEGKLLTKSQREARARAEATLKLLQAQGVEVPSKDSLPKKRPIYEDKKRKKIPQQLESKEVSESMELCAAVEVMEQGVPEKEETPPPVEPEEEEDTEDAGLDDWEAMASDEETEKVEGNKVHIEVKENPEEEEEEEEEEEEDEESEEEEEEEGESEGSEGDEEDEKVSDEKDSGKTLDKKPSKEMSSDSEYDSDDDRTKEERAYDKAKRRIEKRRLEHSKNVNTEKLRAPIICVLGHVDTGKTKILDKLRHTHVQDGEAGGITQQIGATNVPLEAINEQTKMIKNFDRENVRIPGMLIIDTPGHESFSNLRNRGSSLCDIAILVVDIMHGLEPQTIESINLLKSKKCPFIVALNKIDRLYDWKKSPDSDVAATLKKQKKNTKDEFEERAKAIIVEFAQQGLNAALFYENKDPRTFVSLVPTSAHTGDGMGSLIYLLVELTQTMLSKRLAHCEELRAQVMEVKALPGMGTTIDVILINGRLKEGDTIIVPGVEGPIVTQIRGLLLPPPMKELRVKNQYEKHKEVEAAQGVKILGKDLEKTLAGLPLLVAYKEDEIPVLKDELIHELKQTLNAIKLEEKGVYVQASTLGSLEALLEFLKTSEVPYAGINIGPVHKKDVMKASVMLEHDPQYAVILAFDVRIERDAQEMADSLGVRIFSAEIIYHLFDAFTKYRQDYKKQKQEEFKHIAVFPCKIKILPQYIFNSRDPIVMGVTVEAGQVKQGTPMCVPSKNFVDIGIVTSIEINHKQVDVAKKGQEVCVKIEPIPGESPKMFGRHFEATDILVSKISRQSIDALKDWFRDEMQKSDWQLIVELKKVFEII

[2] = biological target: Cell division cycle 7-related protein kinase (Homo sapiens, UniProt O00311)
Cell division cycle 7-related protein kinase, sequence (O00311 whole entry): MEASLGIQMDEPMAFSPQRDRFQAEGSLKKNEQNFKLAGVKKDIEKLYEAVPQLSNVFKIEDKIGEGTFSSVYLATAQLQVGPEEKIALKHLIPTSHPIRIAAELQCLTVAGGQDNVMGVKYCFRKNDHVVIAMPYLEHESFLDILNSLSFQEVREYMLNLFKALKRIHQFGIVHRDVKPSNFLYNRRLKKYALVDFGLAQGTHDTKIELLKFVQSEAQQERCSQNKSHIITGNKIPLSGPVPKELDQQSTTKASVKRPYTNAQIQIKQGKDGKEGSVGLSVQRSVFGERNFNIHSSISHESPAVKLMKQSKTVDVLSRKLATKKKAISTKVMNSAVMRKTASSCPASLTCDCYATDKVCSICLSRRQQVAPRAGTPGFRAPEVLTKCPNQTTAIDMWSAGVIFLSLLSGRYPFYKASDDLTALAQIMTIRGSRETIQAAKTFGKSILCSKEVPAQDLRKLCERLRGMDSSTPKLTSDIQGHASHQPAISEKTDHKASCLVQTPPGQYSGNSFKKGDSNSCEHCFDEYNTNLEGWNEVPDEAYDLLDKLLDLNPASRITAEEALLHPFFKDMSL

Myosin-10 = Myosin-10 (Homo sapiens, UniProt P35580)
Myosin-10, sequence (P35580 whole entry): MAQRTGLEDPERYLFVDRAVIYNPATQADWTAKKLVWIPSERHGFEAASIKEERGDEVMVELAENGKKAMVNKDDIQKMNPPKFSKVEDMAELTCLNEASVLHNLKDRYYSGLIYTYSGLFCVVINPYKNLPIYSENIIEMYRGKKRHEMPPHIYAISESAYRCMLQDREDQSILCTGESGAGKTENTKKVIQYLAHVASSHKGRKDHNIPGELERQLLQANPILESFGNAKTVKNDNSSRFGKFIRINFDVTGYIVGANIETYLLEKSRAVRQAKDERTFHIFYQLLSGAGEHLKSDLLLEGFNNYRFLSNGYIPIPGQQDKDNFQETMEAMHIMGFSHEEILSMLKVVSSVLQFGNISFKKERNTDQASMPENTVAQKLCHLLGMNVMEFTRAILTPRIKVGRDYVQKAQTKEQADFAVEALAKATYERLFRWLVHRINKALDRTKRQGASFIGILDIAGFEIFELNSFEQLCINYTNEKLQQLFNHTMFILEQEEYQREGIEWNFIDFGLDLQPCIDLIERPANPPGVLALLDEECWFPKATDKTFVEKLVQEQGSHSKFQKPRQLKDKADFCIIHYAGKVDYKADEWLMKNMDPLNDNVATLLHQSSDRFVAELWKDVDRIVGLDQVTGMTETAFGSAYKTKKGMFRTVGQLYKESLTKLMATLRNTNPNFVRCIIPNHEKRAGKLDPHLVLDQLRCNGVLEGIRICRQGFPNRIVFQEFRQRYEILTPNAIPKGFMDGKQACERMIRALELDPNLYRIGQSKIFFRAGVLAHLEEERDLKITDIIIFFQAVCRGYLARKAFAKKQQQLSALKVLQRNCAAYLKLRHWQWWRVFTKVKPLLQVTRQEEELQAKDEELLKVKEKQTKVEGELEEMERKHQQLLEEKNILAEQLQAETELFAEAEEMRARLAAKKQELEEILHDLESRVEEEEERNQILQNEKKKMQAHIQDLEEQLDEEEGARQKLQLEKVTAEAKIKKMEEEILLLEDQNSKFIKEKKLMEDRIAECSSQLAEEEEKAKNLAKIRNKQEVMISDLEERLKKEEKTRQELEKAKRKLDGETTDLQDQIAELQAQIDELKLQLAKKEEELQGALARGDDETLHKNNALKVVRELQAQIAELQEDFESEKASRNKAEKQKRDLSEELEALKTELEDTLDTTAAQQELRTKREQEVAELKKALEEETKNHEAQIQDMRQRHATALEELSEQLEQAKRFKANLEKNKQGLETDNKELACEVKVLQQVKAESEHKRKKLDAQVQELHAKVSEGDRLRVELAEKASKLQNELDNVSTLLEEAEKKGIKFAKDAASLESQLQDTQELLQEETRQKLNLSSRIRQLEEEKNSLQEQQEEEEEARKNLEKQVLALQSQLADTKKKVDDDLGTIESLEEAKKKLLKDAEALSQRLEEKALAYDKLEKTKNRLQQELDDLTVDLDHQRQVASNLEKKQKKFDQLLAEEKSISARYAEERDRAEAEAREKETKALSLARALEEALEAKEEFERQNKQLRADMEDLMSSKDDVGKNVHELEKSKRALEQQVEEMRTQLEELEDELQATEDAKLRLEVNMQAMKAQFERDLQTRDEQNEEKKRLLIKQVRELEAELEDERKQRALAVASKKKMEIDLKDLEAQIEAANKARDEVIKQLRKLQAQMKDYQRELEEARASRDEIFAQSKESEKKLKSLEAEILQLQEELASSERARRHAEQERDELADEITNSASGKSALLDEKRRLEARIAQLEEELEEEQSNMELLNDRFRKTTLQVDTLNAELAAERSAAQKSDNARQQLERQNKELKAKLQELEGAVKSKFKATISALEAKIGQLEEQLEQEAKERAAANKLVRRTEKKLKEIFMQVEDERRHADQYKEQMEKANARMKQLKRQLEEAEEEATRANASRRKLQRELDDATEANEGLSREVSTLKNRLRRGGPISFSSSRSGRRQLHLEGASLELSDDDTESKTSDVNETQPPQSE

[3] = biological target: DNA topoisomerase 2-alpha (Homo sapiens, UniProt P11388)
DNA topoisomerase 2-alpha, sequence (P11388 whole entry): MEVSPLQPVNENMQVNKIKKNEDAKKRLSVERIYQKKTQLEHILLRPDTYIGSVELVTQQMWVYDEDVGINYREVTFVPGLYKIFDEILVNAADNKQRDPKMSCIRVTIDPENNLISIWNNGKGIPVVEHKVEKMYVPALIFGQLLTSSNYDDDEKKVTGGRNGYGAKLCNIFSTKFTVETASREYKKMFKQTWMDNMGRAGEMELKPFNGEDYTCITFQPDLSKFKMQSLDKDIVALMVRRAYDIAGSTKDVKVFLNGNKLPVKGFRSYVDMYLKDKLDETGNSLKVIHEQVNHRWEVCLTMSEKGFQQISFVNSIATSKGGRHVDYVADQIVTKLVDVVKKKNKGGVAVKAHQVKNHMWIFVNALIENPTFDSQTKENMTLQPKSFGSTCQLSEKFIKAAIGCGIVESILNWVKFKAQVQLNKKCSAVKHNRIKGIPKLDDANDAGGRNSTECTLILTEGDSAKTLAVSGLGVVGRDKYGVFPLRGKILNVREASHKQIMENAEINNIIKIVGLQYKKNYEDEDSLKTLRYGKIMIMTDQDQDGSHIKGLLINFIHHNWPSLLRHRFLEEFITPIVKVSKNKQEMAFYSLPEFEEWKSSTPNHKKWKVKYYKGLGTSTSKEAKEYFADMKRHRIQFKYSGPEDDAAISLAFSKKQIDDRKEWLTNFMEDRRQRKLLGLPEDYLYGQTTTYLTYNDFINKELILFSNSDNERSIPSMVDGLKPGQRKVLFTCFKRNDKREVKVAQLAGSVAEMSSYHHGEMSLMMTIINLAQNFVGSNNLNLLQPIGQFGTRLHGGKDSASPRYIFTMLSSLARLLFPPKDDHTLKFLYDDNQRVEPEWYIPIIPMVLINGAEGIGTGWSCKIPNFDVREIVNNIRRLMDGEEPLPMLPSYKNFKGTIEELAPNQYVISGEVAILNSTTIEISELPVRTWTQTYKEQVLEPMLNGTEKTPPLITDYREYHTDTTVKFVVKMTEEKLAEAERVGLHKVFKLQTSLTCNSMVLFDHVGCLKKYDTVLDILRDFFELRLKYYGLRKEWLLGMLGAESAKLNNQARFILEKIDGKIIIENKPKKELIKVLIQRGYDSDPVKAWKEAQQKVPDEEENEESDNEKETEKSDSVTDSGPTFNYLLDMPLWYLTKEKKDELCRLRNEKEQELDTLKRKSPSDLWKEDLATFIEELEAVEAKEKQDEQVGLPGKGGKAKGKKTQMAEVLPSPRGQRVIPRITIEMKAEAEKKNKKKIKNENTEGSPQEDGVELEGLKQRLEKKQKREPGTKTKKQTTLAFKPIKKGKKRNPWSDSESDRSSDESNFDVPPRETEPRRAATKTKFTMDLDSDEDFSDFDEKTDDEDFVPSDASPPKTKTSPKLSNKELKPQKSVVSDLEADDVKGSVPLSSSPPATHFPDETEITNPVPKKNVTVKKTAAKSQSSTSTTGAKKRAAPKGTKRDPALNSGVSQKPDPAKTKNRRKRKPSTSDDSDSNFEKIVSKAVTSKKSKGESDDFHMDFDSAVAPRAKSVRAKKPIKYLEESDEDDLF

[4] = biological target: T2, ATP-dependent RNA helicase DHX30 (Homo sapiens, UniProt Q7L2E3)
T2 sequence (Q7L2E3 whole entry): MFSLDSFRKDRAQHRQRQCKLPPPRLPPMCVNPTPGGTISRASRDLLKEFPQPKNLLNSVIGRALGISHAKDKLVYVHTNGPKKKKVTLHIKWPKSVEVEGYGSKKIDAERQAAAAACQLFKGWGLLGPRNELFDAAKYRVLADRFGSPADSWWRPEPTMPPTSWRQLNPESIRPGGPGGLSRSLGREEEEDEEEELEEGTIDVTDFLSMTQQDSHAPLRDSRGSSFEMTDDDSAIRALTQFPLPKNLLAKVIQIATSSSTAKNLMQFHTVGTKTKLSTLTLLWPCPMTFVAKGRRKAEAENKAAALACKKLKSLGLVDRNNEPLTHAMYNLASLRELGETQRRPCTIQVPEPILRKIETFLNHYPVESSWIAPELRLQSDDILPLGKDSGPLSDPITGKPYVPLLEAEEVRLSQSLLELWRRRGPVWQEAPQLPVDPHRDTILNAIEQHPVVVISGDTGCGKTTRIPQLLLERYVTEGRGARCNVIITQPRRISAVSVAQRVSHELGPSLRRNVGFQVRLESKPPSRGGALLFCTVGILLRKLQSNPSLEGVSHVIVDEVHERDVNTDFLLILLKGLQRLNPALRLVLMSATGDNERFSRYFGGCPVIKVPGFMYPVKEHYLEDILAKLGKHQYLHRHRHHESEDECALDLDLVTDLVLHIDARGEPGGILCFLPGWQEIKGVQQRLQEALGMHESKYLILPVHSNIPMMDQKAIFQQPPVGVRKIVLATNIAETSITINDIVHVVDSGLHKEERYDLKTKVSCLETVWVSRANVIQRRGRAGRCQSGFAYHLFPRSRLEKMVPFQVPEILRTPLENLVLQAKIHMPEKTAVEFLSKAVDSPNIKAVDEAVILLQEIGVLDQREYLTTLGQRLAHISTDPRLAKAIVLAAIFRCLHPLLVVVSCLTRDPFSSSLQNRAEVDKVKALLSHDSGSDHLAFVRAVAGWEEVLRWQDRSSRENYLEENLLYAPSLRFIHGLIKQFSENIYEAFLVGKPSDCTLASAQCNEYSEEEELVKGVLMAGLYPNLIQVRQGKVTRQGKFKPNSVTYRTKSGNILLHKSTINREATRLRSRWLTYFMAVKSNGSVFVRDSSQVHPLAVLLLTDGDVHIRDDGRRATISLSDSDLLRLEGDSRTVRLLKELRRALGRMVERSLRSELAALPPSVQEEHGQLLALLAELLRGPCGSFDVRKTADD

[5] = biological target: Hepatocyte growth factor receptor (Homo sapiens, UniProt P08581)
[6] = biological target: Serine/threonine-protein kinase 24 (Homo sapiens, UniProt Q9Y6E0)
[7] = biological target: Tyrosine-protein kinase Lck (Homo sapiens, UniProt P06239)
[8] = biological target: Epidermal growth factor receptor (Homo sapiens, UniProt P00533)
Focal adhesion kinase 1 = Focal adhesion kinase 1 (Homo sapiens, UniProt Q05397)
[9] = biological target: Mitogen-activated protein kinase 14 (Homo sapiens, UniProt Q16539)
[10] = biological target: Protein kinase C theta type (Homo sapiens, UniProt Q04759)
Protein kinase C theta type, sequence (Q04759 whole entry): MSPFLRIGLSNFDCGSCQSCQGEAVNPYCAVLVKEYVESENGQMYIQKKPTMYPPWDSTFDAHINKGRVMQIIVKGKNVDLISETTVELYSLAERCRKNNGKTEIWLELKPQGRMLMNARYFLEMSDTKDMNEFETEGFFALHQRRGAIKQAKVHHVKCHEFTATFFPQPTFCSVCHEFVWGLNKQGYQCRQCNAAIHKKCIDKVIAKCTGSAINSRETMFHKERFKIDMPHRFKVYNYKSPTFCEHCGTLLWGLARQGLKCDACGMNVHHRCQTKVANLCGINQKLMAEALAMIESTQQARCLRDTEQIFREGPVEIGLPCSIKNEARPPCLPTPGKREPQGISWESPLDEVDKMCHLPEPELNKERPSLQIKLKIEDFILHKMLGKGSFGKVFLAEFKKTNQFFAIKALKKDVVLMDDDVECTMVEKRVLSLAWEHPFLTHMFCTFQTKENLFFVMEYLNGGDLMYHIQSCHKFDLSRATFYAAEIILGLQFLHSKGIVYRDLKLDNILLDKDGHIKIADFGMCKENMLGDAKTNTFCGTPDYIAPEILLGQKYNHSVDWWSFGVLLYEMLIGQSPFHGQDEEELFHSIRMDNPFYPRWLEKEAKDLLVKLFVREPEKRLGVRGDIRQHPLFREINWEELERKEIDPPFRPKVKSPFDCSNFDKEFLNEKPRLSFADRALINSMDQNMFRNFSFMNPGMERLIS
Further: in the data inactive means no Kd found up to 30 µM.

Compound | Kd [1] | Kd [2] | Kd (Myosin-10) | Kd [3] | Kd [4] | Kd [5] | Kd [6] | Kd [7] | Kd [8] | Kd (Focal adhesion kinase 1) | Kd [9] | Kd [10]
COc1cc2c(Oc3ccc4[nH]c(C)cc4c3F)ncnc2cc1OCCCN1CCCC1 [CEDIRANIB] | > 30 µM (inactive) | > 30 µM (inactive) | > 30 µM (inactive) | > 30 µM (inactive) | > 30 µM (inactive) | – | – | – | – | – | – | –
CC[C@@](C)(Nc1ccnc(-c2c[nH]c3ncccc23)n1)C(=O)NCC(F)(F)F [DECERNOTINIB] | – | – | > 30 µM (inactive) | 0.064 µM | > 30 µM (inactive) | 0.094 µM | > 30 µM (inactive) | > 30 µM (inactive) | > 30 µM (inactive) | > 30 µM (inactive) | > 30 µM (inactive) | –
CC(C)(O)CC(=O)NCCn1ccc2ncnc(Nc3ccc(Oc4cccc(C(F)(F)F)c4)c(Cl)c3)c21 [TAK-285] | – | > 30 µM (inactive) | – | – | > 30 µM (inactive) | – | > 30 µM (inactive) | – | – | > 30 µM (inactive) | > 30 µM (inactive) | > 30 µM (inactive)
CC1(C)CNc2cc(NC(=O)c3cccnc3NCc3ccncc3)ccc21 [MOTESANIB] | > 30 µM (inactive) | > 30 µM (inactive) | > 30 µM (inactive) | – | > 30 µM (inactive) | – | – | – | – | – | – | –
Cc1c(NC(=O)OC[C@@H]2COCCN2)cn2ncnc(Nc3ccc4c(cnn4Cc4cccc(F)c4)c3)c12 [AC-480] | – | – | > 30 µM (inactive) | – | – | > 30 µM (inactive) | > 30 µM (inactive) | > 30 µM (inactive) | 0.003 µM (active) | > 30 µM (inactive) | > 30 µM (inactive) | > 30 µM (inactive)
C[C@@H]1COC(Nc2ccc3ncnc(Nc4ccc(OCc5nccs5)c(Cl)c4)c3c2)=N1 [VARLITINIB] | – | > 30 µM (inactive) | – | > 30 µM (inactive) | > 30 µM (inactive) | > 30 µM (inactive) | > 30 µM (inactive) | > 30 µM (inactive) | 0.005 µM (active) | > 30 µM (inactive) | > 30 µM (inactive) | > 30 µM (inactive)
CNC(=O)c1ccc(Nc2ncc(C(F)(F)F)c(NCc3nccnc3N(C)S(C)(=O)=O)n2)cc1 [DEFACTINIB] | – | > 30 µM (inactive) | – | > 30 µM (inactive) | > 30 µM (inactive) | > 30 µM (inactive) | > 30 µM (inactive) | > 30 µM (inactive) | > 30 µM (inactive) | – | > 30 µM (inactive) | > 30 µM (inactive)
CCOc1ccn(-c2ccc(F)cc2)c(=O)c1C(=O)Nc1ccc(Oc2ccnc(N)c2Cl)c(F)c1 [BMS-777607] | > 30 µM (inactive) | > 30 µM (inactive) | > 30 µM (inactive) | – | > 30 µM (inactive) | 0.011 µM (active) | – | – | – | – | > 30 µM (inactive) | > 30 µM (inactive)
CN(C)C/C=C/C(=O)Nc1cc2c(Nc3ccc(F)c(Cl)c3)ncnc2cc1O[C@H]1CCOC1 [AFATINIB] | – | > 30 µM (inactive) | > 30 µM (inactive) | > 30 µM (inactive) | > 30 µM (inactive) | – | – | – | – | – | – | –
S=C(NCc1ccc2c(c1)OCO2)N1CCN(c2ncnc3c2oc2ccccc23)CC1 [AMUVATINIB] | > 30 µM (inactive) | > 30 µM (inactive) | > 30 µM (inactive) | > 30 µM (inactive) | > 30 µM (inactive) | > 30 µM (inactive) | > 30 µM (inactive) | > 30 µM (inactive) | > 30 µM (inactive) | > 30 µM (inactive) | > 30 µM (inactive) | > 30 µM (inactive)
Cn1cnc2c(F)c(Nc3ccc(Br)cc3Cl)c(C(=O)NOCCO)cc21 [SELUMETINIB] | > 30 µM (inactive) | > 30 µM (inactive) | > 30 µM (inactive) | > 30 µM (inactive) | – | – | – | – | – | – | – | –
COc1cc2ncnc(Nc3ccc(O)cc3)c2cc1OC [WHI-P131] | > 30 µM (inactive) | – | > 30 µM (inactive) | > 30 µM (inactive) | > 30 µM (inactive) | > 30 µM (inactive) | > 30 µM (inactive) | > 30 µM (inactive) | 1.16 µM (active) | > 30 µM (inactive) | > 30 µM (inactive) | > 30 µM (inactive)
FC(F)(F)c1ccc(CNc2ccc(Cc3c[nH]c4ncc(Cl)cc34)cn2)cn1 [PEXIDARTINIB] | – | > 30 µM (inactive) | > 30 µM (inactive) | > 30 µM (inactive) | > 30 µM (inactive) | > 30 µM (inactive) | > 30 µM (inactive) | > 30 µM (inactive) | > 30 µM (inactive) | > 30 µM (inactive) | > 30 µM (inactive) | 0.006 µM
COc1cc2c(N3CCN(C(=O)Nc4ccc(OC(C)C)cc4)CC3)ncnc2cc1OCCCN1CCCCC1 [TANDUTINIB] | > 30 µM (inactive) | > 30 µM (inactive) | > 30 µM (inactive) | – | – | – | – | – | – | – | – | –
O=c1[nH]c([C@@H]2CCCN2)nc2c1oc1ccc(Cl)cc12 | > 30 µM (inactive) | > 30 µM (inactive) | – | > 30 µM (inactive) | > 30 µM (inactive) | > 30 µM (inactive) | > 30 µM (inactive) | > 30 µM (inactive) | > 30 µM (inactive) | > 30 µM (inactive) | – | > 30 µM (inactive)
COc1ccc(-c2ccc3ncc4c(c3c2)n(-c2ccc(N3CCNCC3)c(C(F)(F)F)c2)c(=O)n4C)cn1 [BGT-226 FREE BASE] | > 30 µM (inactive) | > 30 µM (inactive) | > 30 µM (inactive) | > 30 µM (inactive) | – | > 30 µM (inactive) | – | > 30 µM (inactive) | > 30 µM (inactive) | > 30 µM (inactive) | > 30 µM (inactive) | > 30 µM (inactive)
CC(C)CC(=O)Nc1[nH]nc2c1CN(C(=O)C1CCN(C)CC1)C2(C)C [PHA-793887] | > 30 µM (inactive) | > 30 µM (inactive) | > 30 µM (inactive) | > 30 µM (inactive) | – | – | – | – | – | – | > 30 µM (inactive) | 2.34 µM (active)
